# Measurements reported in patent US11866720B2, “Transgenic or non-transgenic plants with mutated protoporphyrinogen oxidase having increased tolerance to herbicides” (priority 2013, dated 2024).
# Where “and” joins values, the source holds several entries; their conditions need not be identical. Equal entries are not always repeated.
# System: transgenic Arabidopsis thaliana plants expressing wildtype or mutated PPO
# Assay: Greenhouse tolerance test of transgenic T1 Arabidopsis plants (phytotox / injury rating 0-100)
# Assay type: in vivo
# Conditions: for Plant growth injury, scale 0-100, 100 is 100% damage: +1% MSO
# [1] = non-transgenic Arabidopsis, POST, 7 DAT, 75 g ai/ha
# [2] = non-transgenic Arabidopsis, POST, 7 DAT, 150 g ai/ha
# [3] = non-transgenic Arabidopsis, POST, 7 DAT, 300 g ai/ha
# [4] = Ø F420V 1, POST, 7 DAT, 75 g ai/ha
# [5] = Ø F420V 1, POST, 7 DAT, 150 g ai/ha
# [6] = Ø F420V 1, POST, 7 DAT, 300 g ai/ha
# [7] = Ø F420V 2, POST, 7 DAT, 75 g ai/ha
# [8] = Ø F420V 2, POST, 7 DAT, 150 g ai/ha
# [9] = Ø F420V 2, POST, 7 DAT, 300 g ai/ha
# [10] = Ø F420V 3, POST, 7 DAT, 75 g ai/ha
# [11] = Ø F420V 3, POST, 7 DAT, 150 g ai/ha
# [12] = Ø F420V 3, POST, 7 DAT, 300 g ai/ha
# [13] = Ø R128A, F420V 1, POST, 7 DAT, 75 g ai/ha
# [14] = Ø R128A, F420V 1, POST, 7 DAT, 150 g ai/ha
# [15] = Ø R128A, F420V 1, POST, 7 DAT, 300 g ai/ha
# [16] = Ø R128A, F420V 1 to 3, 75 g ai/ha
# [17] = Ø R128A, F420V 1 to 3, 150 g ai/ha
# [18] = Ø R128A, F420V 1 to 3, 300 g ai/ha
# [19] = Ø R128A, F420V 2, POST, 7 DAT, 75 g ai/ha
# [20] = Ø R128A, F420V 2, POST, 7 DAT, 150 g ai/ha
# [21] = Ø R128A, F420V 2, POST, 7 DAT, 300 g ai/ha
# [22] = Ø R128A, F420V 3, POST, 7 DAT, 75 g ai/ha
# [23] = Ø R128A, F420V 3, POST, 7 DAT, 150 g ai/ha
# [24] = Ø R128A, F420V 3, POST, 7 DAT, 300 g ai/ha
# [25] = Ø non-transgenic Arabidopsis, POST, 7 DAT, 75 g ai/ha
# [26] = Ø non-transgenic Arabidopsis, POST, 7 DAT, 150 g ai/ha
# [27] = Ø non-transgenic Arabidopsis, POST, 7 DAT, 300 g ai/ha
Structure (SMILES),"Plant growth injury, scale 0-100, 100 is 100% damage [1]","Plant growth injury, scale 0-100, 100 is 100% damage [2]","Plant growth injury, scale 0-100, 100 is 100% damage [3]","Plant growth injury, scale 0-100, 100 is 100% damage [4]","Plant growth injury, scale 0-100, 100 is 100% damage [5]","Plant growth injury, scale 0-100, 100 is 100% damage [6]","Plant growth injury, scale 0-100, 100 is 100% damage (Ø F420V 1 to 3, 75 g ai/ha)","Plant growth injury, scale 0-100, 100 is 100% damage (Ø F420V 1 to 3, 150 g ai/ha)","Plant growth injury, scale 0-100, 100 is 100% damage (Ø F420V 1 to 3, 300 g ai/ha)","Plant growth injury, scale 0-100, 100 is 100% damage [7]","Plant growth injury, scale 0-100, 100 is 100% damage [8]","Plant growth injury, scale 0-100, 100 is 100% damage [9]","Plant growth injury, scale 0-100, 100 is 100% damage [10]","Plant growth injury, scale 0-100, 100 is 100% damage [11]","Plant growth injury, scale 0-100, 100 is 100% damage [12]","Plant growth injury, scale 0-100, 100 is 100% damage [13]","Plant growth injury, scale 0-100, 100 is 100% damage [14]","Plant growth injury, scale 0-100, 100 is 100% damage [15]","Plant growth injury, scale 0-100, 100 is 100% damage [16]","Plant growth injury, scale 0-100, 100 is 100% damage [17]",further results
C#CCN1C(=O)C(F)(F)Oc2cc(F)c(-n3c(=O)n(C)c(=S)n(C)c3=O)cc21,98%,98%,98%,17%,28%,36%,11%,17%,26%,9%,11%,22%,8%,12%,22%,18%,23%,26%,18%,24%,"Injury Rating 0-100% (0 = no injury, 100 = total control) (Line 2, F420V, SEQ_ID 2 & 4, 19 DAT, 150 g/Ha + 1% MSO): 90% and 85% and 45%; Plant growth injury, scale 0-100, 100 is 100% damage [18]: 32%; Plant growth injury, scale 0-100, 100 is 100% damage [19]: 24%; Plant growth injury, scale 0-100, 100 is 100% damage [20]: 20%; Plant growth injury, scale 0-100, 100 is 100% damage [21]: 33%; Plant growth injury, scale 0-100, 100 is 100% damage [22]: 11%; Plant growth injury, scale 0-100, 100 is 100% damage [23]: 30%; Plant growth injury, scale 0-100, 100 is 100% damage [24]: 36%; Plant growth injury, scale 0-100, 100 is 100% damage [25]: 98%; Plant growth injury, scale 0-100, 100 is 100% damage [26]: 98%; Plant growth injury, scale 0-100, 100 is 100% damage [27]: 98%"
"CC(C)N(C)S(=O)(=O)NC(=O)c1cc(-n2c(=O)cc(C(F)(F)F)n(C)c2=O)c(F)cc1Cl [Saflufenacil, saflufenacil]",98%,98%,98%,39%,60%,77%,42%,60%,76%,36%,55%,72%,51%,66%,78%,16%,18%,22%,18%,20%,"Plant growth injury, scale 0-100, 100 is 100% damage [18]: 21%; Plant growth injury, scale 0-100, 100 is 100% damage [19]: 22%; Plant growth injury, scale 0-100, 100 is 100% damage [20]: 24%; Plant growth injury, scale 0-100, 100 is 100% damage [21]: 22%; Plant growth injury, scale 0-100, 100 is 100% damage [22]: 18%; Plant growth injury, scale 0-100, 100 is 100% damage [23]: 18%; Plant growth injury, scale 0-100, 100 is 100% damage [24]: 19%; Plant growth injury, scale 0-100, 100 is 100% damage [25]: 98%; Plant growth injury, scale 0-100, 100 is 100% damage [26]: 98%; Plant growth injury, scale 0-100, 100 is 100% damage [27]: 98%"
